Publication PMC8214221, “Sequence determinants in the cathelicidin LL-37 that promote inflammation via presentation of RNA to scavenger receptors” (The Journal of Biological Chemistry, 2021)
Residues, ends and D or L forms follow the SMILES beside them.

Molecular target: T1, scavenger receptor SRB1 (Homo sapiens, UniProt Q8WTV0)
T1 construct: host or cells: NHEK (normal human epidermal keratinocytes)
T1 sequence (Q8WTV0 1-552): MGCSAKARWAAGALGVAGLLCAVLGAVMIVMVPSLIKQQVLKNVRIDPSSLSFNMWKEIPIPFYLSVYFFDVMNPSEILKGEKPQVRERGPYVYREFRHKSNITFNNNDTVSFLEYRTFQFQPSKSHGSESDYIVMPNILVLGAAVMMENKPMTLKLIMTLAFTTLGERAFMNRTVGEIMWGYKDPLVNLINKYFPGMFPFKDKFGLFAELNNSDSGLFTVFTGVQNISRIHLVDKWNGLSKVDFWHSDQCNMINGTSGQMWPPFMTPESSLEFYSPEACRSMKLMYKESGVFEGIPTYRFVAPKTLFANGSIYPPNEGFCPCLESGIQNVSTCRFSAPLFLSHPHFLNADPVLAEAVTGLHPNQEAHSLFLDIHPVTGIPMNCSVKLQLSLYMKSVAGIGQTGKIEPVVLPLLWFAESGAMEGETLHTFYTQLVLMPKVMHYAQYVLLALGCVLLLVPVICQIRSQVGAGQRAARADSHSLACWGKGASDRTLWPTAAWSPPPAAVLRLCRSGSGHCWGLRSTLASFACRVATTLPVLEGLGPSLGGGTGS
Assay: Proximity ligation assay (PLA) on NHEKs
Assay type: cell-based
Conditions: peptide 2 μM 15 min, then biotinylated U1 dsRNA 2 μg/ml 60 min at 4 °C, spatial correlation <40 nm, n = 3
Experimental: Figure 4 LL-34 enables U1 dsRNA association with scavenger receptor (SR) SRB1.A and B, NHEKs with gene knockdown for SRs SCARB1, SCARB1, SCARA3, CD36, LRP1, CD163L1, CXCL16, MSR1, MARCO, and OLR1 were cotreated with U1 dsRNA (2.5 μg/ml) and LL-34 (2 μM) for 18 h. Gene expression of IFNB1 and CXCL10 was assessed with quantitative RT-PCR (n = 3). C, proximity ligation assay (PLA) for U1 dsRNA and SR SRB1 binding. NHEKs were treated with LL-34-parent, LL-34-I24A, and LL-34-L31A (2 μM) for 15 min, followed by treatment with biotinylated U1 dsRNA (2 μg/ml) for 60 min at 4 °C. The physical proximity of LL-34 and SRB1 (C), and U1 dsRNA, and SRB1 (D) was determined with fluorescence-based PLA that produces a red fluorescent signal. DAPI (blue) was used as a nuclear counterstain. The scale bar represents 50 μm. Signal counts of C and D from five visual fields were used for PLA signal quantification, as shown in E and F (n = 3). (∗p < 0.05; ∗∗p < 0.01; ∗∗∗p < 0.001; ∗∗∗∗p < 0.0001). […]
The binding of peptide to SRB1 or U1 to SRB1 was assessed by proximity ligation assay (PLA) (Fig. 4, C–E).
PLA was performed as described previously ([30]). […] PLA signals were captured on Olympus BX41 microscope (widefield) with 40× objective and counted by Duolink ImageTool software, version 1.0 (Sigma–Aldrich). Five fields were captured per treatment for quantification of PLA signals with ImageTool software. […]

Q: With `CC[C@H](C)[C@H](NC(=O)[C@H](CCCCN)NC(=O)[C@H](CCC(=O)O)NC(=O)[C@H](CCCCN)NC(=O)[C@H](CO)NC(=O)[C@H](CCCCN)NC(=O)[C@H](CCCNC(=N)N)NC(=O)[C@H](Cc1ccccc1)NC(=O)[C@H](Cc1ccccc1)NC(=O)[C@H](CC(=O)O)NC(=O)CNC(=O)[C@H](CC(C)C)NC(=O)[C@@H](N)CC(C)C)C(=O)NCC(=O)N[C@@H](CCCCN)C(=O)N[C@@H](CCC(=O)O)C(=O)N[C@@H](Cc1ccccc1)C(=O)N[C@@H](CCCCN)C(=O)N[C@@H](CCCNC(=N)N)C(=O)N[C@H](C(=O)N[C@H](C(=O)N[C@@H](CCC(N)=O)C(=O)N[C@@H](CCCNC(=N)N)C(=O)N[C@@H](C)C(=O)N[C@@H](CCCCN)C(=O)N[C@@H](CC(=O)O)C(=O)N[C@@H](Cc1ccccc1)C(=O)N[C@@H](CC(C)C)C(=O)N[C@@H](CCCNC(=N)N)C(=O)N[C@@H](CC(N)=O)C(=O)N[C@@H](CC(C)C)C(=O)N[C@H](C(=O)N1CCC[C@H]1C(=O)N[C@@H](CCCNC(=N)N)C(=O)O)C(C)C)C(C)C)[C@@H](C)CC` [LL-34—I24A] (H-LLGDFFRKSKEKIGKEFKRIVQRAKDFLRNLVPR-OH) as the compound, how does the “Localization of peptide with SRB1 (PLA)” value read?
A: did not achieve close localization

Q: With `CC[C@H](C)[C@H](NC(=O)[C@H](CCCCN)NC(=O)[C@H](CCC(=O)O)NC(=O)[C@H](CCCCN)NC(=O)[C@H](CO)NC(=O)[C@H](CCCCN)NC(=O)[C@H](CCCNC(=N)N)NC(=O)[C@H](Cc1ccccc1)NC(=O)[C@H](Cc1ccccc1)NC(=O)[C@H](CC(=O)O)NC(=O)CNC(=O)[C@H](CC(C)C)NC(=O)[C@@H](N)CC(C)C)C(=O)NCC(=O)N[C@@H](CCCCN)C(=O)N[C@@H](CCC(=O)O)C(=O)N[C@@H](Cc1ccccc1)C(=O)N[C@@H](CCCCN)C(=O)N[C@@H](CCCNC(=N)N)C(=O)N[C@H](C(=O)N[C@H](C(=O)N[C@@H](CCC(N)=O)C(=O)N[C@@H](CCCNC(=N)N)C(=O)N[C@H](C(=O)N[C@@H](CCCCN)C(=O)N[C@@H](CC(=O)O)C(=O)N[C@@H](Cc1ccccc1)C(=O)N[C@@H](CC(C)C)C(=O)N[C@@H](CCCNC(=N)N)C(=O)N[C@@H](CC(N)=O)C(=O)N[C@@H](C)C(=O)N[C@H](C(=O)N1CCC[C@H]1C(=O)N[C@@H](CCCNC(=N)N)C(=O)O)C(C)C)[C@@H](C)CC)C(C)C)[C@@H](C)CC` [LL-34—L31A] (H-LLGDFFRKSKEKIGKEFKRIVQRIKDFLRNAVPR-OH) as the compound, how does the “Localization of peptide with SRB1 (PLA)” value read?
A: did not achieve close localization
